The molecules below were run against T1, HIF-PH2 (Homo sapiens, UniProt Q9GZT9) (assay: HIF-PH assay (14CO2 capture, peptide-dependent turnover)). Details: compound concentration 22.22 μM.
T1 construct: made in house; host or cells: insect Hi5 cells
Assay type: biochemical
Text: Ketoglutaric acid α-[1-^14C]-sodium salt, alpha-ketoglutaric acid sodium salt, and HPLC purified peptide may be obtained from commercial sources, e.g., Perkin-Elmer (Wellesley Mass.), Sigma-Aldrich, and SynPep Corp. (Dublin Calif.), respectively. Peptides for use in the assay may be fragments of HIFα as described above or as disclosed in International Publication WO 2005/118836, incorporated by reference herein. For example, a HIF peptide for use in the HIF-PH assay is [methoxycoumarin]-DLDLEALAPYIPADDDFQL-amide. HIF-PH, e.g., HIF-PH2 (EGLN1), can be expressed in, e.g., insect Hi5 cells, and partially purified, e.g., through a SP ion exchange chromatography column. Enzyme activity is determined by capturing ^14CO2 using an assay described by Kivirikko and Myllyla (1982, Methods Enzymol. 82:245-304). Assay reactions contain 50 mM HEPES (pH 7.4), 100 μM α-ketoglutaric acid sodium salt, 0.30 μCi/mL ketoglutaric acid α-[1-^14C]-sodium salt, 40 μM FeSO4, 1 mM ascorbate, 1541.8 units/mL Catalase, with or without 50 μM peptide substrate and various concentrations of compound of the invention. Reactions are initiated by addition of HIF-PH enzyme.
The peptide-dependent percent turnover is calculated by subtracting percent turnover in the absence of peptide from percent turnover in the presence of substrate peptide. Percent inhibition and IC50 are calculated using peptide-dependent percent turnover at given inhibitor concentrations. Calculation of IC50 values for each inhibitor is conducted using GraFit software (Erithacus Software Ltd., Surrey UK).
Representative compounds of the invention were analyzed using the HIF-PH assay described above. Table I below presents enzyme inhibition data for exemplary compounds against HIF-PH2, a representative HIF prolyl hydroxylase enzyme. By inhibiting HIF prolyl hydroxylase enzymes, compounds of the invention stabilize HIFα, which then combines with HIFβ to form an active transcription factor that increases expression of various genes involved in numerous beneficial cellular processes.

T1 sequence (Q9GZT9 whole entry, species assumed): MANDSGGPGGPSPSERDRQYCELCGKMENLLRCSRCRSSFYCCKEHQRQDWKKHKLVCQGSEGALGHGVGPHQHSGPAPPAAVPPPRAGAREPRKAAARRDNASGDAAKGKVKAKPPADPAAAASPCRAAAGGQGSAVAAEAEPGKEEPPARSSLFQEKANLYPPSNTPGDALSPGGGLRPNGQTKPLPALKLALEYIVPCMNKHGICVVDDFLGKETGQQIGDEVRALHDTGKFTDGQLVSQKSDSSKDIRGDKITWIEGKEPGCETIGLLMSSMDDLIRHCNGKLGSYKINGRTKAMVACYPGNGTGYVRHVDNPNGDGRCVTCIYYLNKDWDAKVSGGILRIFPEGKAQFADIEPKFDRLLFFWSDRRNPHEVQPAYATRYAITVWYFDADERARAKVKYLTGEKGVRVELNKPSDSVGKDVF

SMILES | inhibition at 22.22 µM
Cc1nsc2c(O)c(C(=O)NCC(=O)O)nc(-c3ccccc3)c12 [Example 31, [(7-Hydroxy-3-methyl-4-phenyl-isothiazolo[4,5-c]pyridine-6-carbonyl)-amino]-acetic acid] | 98%
N#Cc1nc(C(=O)NCC(=O)O)c(O)c2c(-c3ccc(F)cc3)nsc12 [Example 8, {[7-Cyano-3-(4-fluoro-phenyl)-4-hydroxy-isothiazolo[5,4-c]pyridine-5-carbonyl]-amino}-acetic acid] | 98.3%
O=C(O)CNC(=O)c1nc(-c2cccc3ccccc23)c2snc(-c3ccc(Cl)cc3)c2c1O [Example 24, {[3-(4-Chloro-phenyl)-4-hydroxy-7-naphthalen-1-yl-isothiazolo[5,4-c]pyridine-5-carbonyl]-amino}-acetic acid] | 96%

The next lines start with the values.

inhibition at 22.22 µM | SMILES
98% | Cc1nsc2c(O)c(C(=O)NCC(=O)O)nc(-c3cnccn3)c12 [Example 41, [(7-Hydroxy-3-methyl-4-pyrazin-2-yl-isothiazolo[4,5-c]pyridine-6-carbonyl)-amino]-acetic acid]
97% | O=C(O)CNC(=O)c1ncc2snc(-c3ccccc3)c2c1O [Example 43, [(4-Hydroxy-3-phenyl-isothiazolo[5,4-c]pyridine-5-carbonyl)-amino]-acetic acid]

Same assay, conditions: compound concentration 200 μM

SMILES | inhibition at 200 µM
O=C(O)CNC(=O)c1nc(-c2cccnc2)c2snc(-c3ccccc3)c2c1O [Example 3, [(4-Hydroxy-3-phenyl-7-pyridin-3-yl-isothiazolo[5,4-c]pyridine-5-carbonyl)-amino]-acetic acid] | 100%
Cc1nc(C(=O)NCC(=O)O)c(O)c2c(C)nsc12 [Example 28, [(4-Hydroxy-3,7-dimethyl-isothiazolo[5,4-c]pyridine-5-carbonyl)-amino]-acetic acid] | 100%
Cc1nc(C(=O)NCC(=O)O)c(O)c2c(-c3ccc(F)cc3)nsc12 [Example 9, {[3-(4-Fluoro-phenyl)-4-hydroxy-7-methyl-isothiazolo[5,4-c]pyridine-5-carbonyl]-amino}-acetic acid] | 97.4%
Cc1nc(C(=O)NCC(=O)O)c(O)c2c(-c3ccc(Cl)cc3)nsc12 [Example 15, {[3-(4-Chloro-phenyl)-4-hydroxy-7-methyl-isothiazolo[5,4-c]pyridine-5-carbonyl]-amino}-acetic acid] | 99.5%
Cc1nsc2c(O)c(C(=O)NCC(=O)O)ncc12 [Example 32, [(7-Hydroxy-3-methyl-isothiazolo[4,5-c]pyridine-6-carbonyl)-amino]-acetic acid] | 100%
O=C(O)CNC(=O)c1nc(-c2ccc(F)cc2)c2snc(-c3ccccc3)c2c1O [Example 1, {[7-(4-Fluoro-phenyl)-4-hydroxy-3-phenyl-isothiazolo[5,4-c]pyridine-5-carbonyl]-amino}-acetic acid] | 98%
C[C@@H](NC(=O)c1ncc2snc(-c3ccc(Cl)cc3)c2c1O)C(=O)O [Example 18, (R)-2-{[3-(4-Chloro-phenyl)-4-hydroxy-isothiazolo[5,4-c]pyridine-5-carbonyl]-amino}-propionic acid] | 54%
O=C(O)CNC(=O)c1nc(-c2ccccc2)c2snc(-c3ccc(Cl)cc3)c2c1O [Example 17, {[3-(4-Chloro-phenyl)-4-hydroxy-7-phenyl-isothiazolo[5,4-c]pyridine-5-carbonyl]-amino}-acetic acid] | 98.7%
O=C(O)CNC(=O)c1ncc2snc(-c3ccccc3F)c2c1O [Example 33, {[3-(2-Fluoro-phenyl)-4-hydroxy-isothiazolo[5,4-c]pyridine-5-carbonyl]-amino}-acetic acid] | 100%

Other lines, results leading:

inhibition at 200 µM | SMILES
100% | C#Cc1nc(C(=O)NCC(=O)O)c(O)c2c(C)nsc12 [Example 39, [(7-Ethynyl-4-hydroxy-3-methyl-isothiazolo[5,4-c]pyridine-5-carbonyl)-amino]-acetic acid]
74% | Cc1nsc2c(-c3ccccn3)nc(C(=O)NCC(=O)O)c(O)c12 [Example 38, [(4-Hydroxy-3-methyl-7-pyridin-2-yl-isothiazolo[5,4-c]pyridine-5-carbonyl)-amino]-acetic acid]
100% | O=C(O)CNC(=O)c1nc(-c2ccc(Oc3ccccc3)cc2)c2snc(-c3ccccc3F)c2c1O [Example 35, {[3-(2-Fluoro-phenyl)-4-hydroxy-7-(4-phenoxy-phenyl)-isothiazolo[5,4-c]pyridine-5-carbonyl]-amino}-acetic acid]
99% | CCc1nc(C(=O)NCC(=O)O)c(O)c2snc(C)c12 [Example 47, [(4-Ethyl-7-hydroxy-3-methyl-isothiazolo[4,5-c]pyridine-6-carbonyl)-amino]-acetic acid]
100% | O=C(O)CNC(=O)c1nc(-c2ccccc2)c2snc(-c3ccccc3F)c2c1O [Example 34, {[3-(2-Fluoro-phenyl)-4-hydroxy-7-phenyl-isothiazolo[5,4-c]pyridine-5-carbonyl]-amino}-acetic acid]
100% | Cc1nc(C(=O)NCC(=O)O)c(O)c2c(-c3ccccc3F)nsc12 [Example 36, {[3-(2-Fluoro-phenyl)-4-hydroxy-7-methyl-isothiazolo[5,4-c]pyridine-5-carbonyl]-amino}-acetic acid]

Source: US9387200B2, “Isothiazole-pyridine derivatives as modulators of HIF (hypoxia inducible factor) activity” (FibroGen, Inc., priority 2008, dated 2016)
